In patent US20240182945A1, “PRODUCTS FOR REGULATION OF EUKARYOTIC AND MICROBIAL CELLS GROWTH” (priority 2021, published 2024):

Tests used:
[1] = system: bacteria of the biosample (persisters); experiment: Neutropenic mice instilled with biosample and treated with antibiotic for 72 h, microbial growth in organs and blood; format: in vivo; settings: neutropenic C57BL/6 mice treated for 72 h, agar with 100 ug/mL of the antibiotic
Method: Next, we confirmed that antibiotics selected with proposed algorithm are effective. Adult C57BL/6 mice were rendered neutropenic by injecting cyclophosphamide subcutaneously 4 days before infection (150 mg/kg of body weight), 1 day before infection (100 mg/kg), and 1 day after infection (100 mg/kg). Mice were anesthetized with 2% isoflurane and orally instilled with biosample (stored at +4 C). Briefly, nares were blocked, and mice aspirated 50 μL of the biosample into the lungs while being held vertically for 60 s.

[2] = system: bacteria of sputum from patients with lung diseases; experiment: Sputum plated on 24-well plates with antibiotics at Cmax or C0-4 h, Algorithm #1 or #2; format: cell-based; further: key: '+'—presence of bacterial growth, antibiotic ineffective; '−'—absence of bacterial growth, antibiotic effective
Method: Pathological material (sputum) from patients with lung diseases was plated into wells of 24-well plates filled with a nutrient medium supplemented with erythrocytes 5%, to which antibiotics were added taken at different concentrations.
Group #1—antibiotics were taken at concentrations close to a maximum (peak) concentration achievable at the site of infection Cmax
Algorithm #1. Lab technician, analyzed the appearance of bacterial growth by comparing the signs of bacterial growth in each well supplemented with antibiotic(s) at certain timepoint, with the signs of bacterial growth in the same well at previous time point(s).
Algorithm #2. Lab technician analyzed the appearance of bacterial growth by comparing the signs of bacterial growth in each well supplemented with antibiotic(s) with bacterial growth in antibiotic-free control

[3] = system: bacteria of sputum from patients with lung diseases; experiment: Standard antibiotic susceptibility study using the microbroth dilution method (Algorithm #3); format: cell-based; further: key: '+'—presence of bacterial growth, antibiotic ineffective; '−'—absence of bacterial growth, antibiotic effective
Text: Algorithm #3—Standard antibiotic susceptibility study using the microbroth dilution method.

Pseudomonas aeruginosa = settings: cited from earlier work
[4] = 3 h; cited from earlier work
[5] = system: S.aureus (PP) and MM in sputum from children with pneumonia; experiment: Degree of eradication of PP and MM on Columbia agar with antibiotic at concentrations achievable at the site of infection; format: cell-based; parameters: key to Degree of primary pathogen eradication, evaluation of ABEPP: % of primary pathogen (PP) eliminated
Method: We next tried to select antibiotics based on building a probability model. Antibiotic efficacy was evaluated based on a novel parameters: • ABEPPMM100—antibiotic concentration that is required for the elimination of 100% “complex” PP+MM. • ABEPPMM99—antibiotic concentration that is required for the elimination of 99% “complex” PP+MM.
ABEPPMM90—antibiotic concentration that is required for the elimination of 90% “complex” PP+MM.
ABEPPMM50—antibiotic concentration that is required for the elimination of 50% “complex” PP+MM.
ABEPP100—antibiotic concentration that affecting on “complex” PP+MM is required for the elimination of 100% PP.
ABEPP99—antibiotic concentration that affecting on “complex” PP+MM is required for the elimination of 99% PP.
ABEPP90—antibiotic concentration that affecting on “complex” PP+MM is required for the elimination of 90% PP.
ABEPP50—antibiotic concentration that affecting on “complex” PP+MM is required for the elimination of 50% PP.
We used sputum from children with pneumonia, with S.aureus as confirmed PP. Patient 1—child • Patient 2—child • Patient 3—child

[6] = Patient 1, C0-1 h, 24 h of growth
[7] = Patient 1, C0-2 h, 24 h of growth
[8] = Patient 1, C0-3 h, 24 h of growth
[9] = Patient 1, C0-4 h, 24 h of growth
[10] = Patient 1, C0-6 h, 24 h of growth
[11] = Patient 1, C0-8 h, 24 h of growth
[12] = Patient 1, C0-12 h, 24 h of growth
[13] = Patient 1, C0-24 h, 24 h of growth
[14] = Patient 1, C2-3 h, 24 h of growth
[15] = Patient 1, C3-4 h, 24 h of growth
[16] = Patient 1, C4-6 h, 24 h of growth
[17] = Patient 1, C6-8 h, 24 h of growth
[18] = Patient 1, C8-12 h, 24 h of growth
[19] = Patient 1, C12-24 h, 24 h of growth
[20] = Patient 1, Cmax × 2, 24 h of growth
[21] = Patient 2, C0-3 h, 24 h of growth
[22] = Patient 2, C0-4 h, 24 h of growth
[23] = Patient 2, C0-6 h, 24 h of growth
[24] = Patient 2, C0-8 h, 24 h of growth
[25] = Patient 2, C0-12 h, 24 h of growth
[26] = Patient 2, C0-24 h, 24 h of growth
[27] = Patient 2, C3-4 h, 24 h of growth
[28] = Patient 2, C4-6 h, 24 h of growth
[29] = Patient 2, C6-8 h, 24 h of growth
[30] = Patient 2, C8-12 h, 24 h of growth
[31] = Patient 2, C12-24 h, 24 h of growth
[32] = Patient 3, C0-3 h, 24 h of growth
[33] = Patient 3, C0-4 h, 24 h of growth
[34] = Patient 3, C0-6 h, 24 h of growth
[35] = Patient 3, C0-8 h, 24 h of growth
[36] = Patient 3, C0-12 h, 24 h of growth
[37] = Patient 3, C0-24 h, 24 h of growth
[38] = Patient 3, C3-4 h, 24 h of growth
[39] = Patient 3, C4-6 h, 24 h of growth
[40] = Patient 3, C6-8 h, 24 h of growth
[41] = Patient 3, C8-12 h, 24 h of growth
[42] = Patient 3, C12-24 h, 24 h of growth

CN[C@H](CC(C)C)C(=O)N[C@H]1C(=O)N[C@@H](CC(N)=O)C(=O)N[C@H]2C(=O)N[C@H]3C(=O)N[C@H](C(=O)N[C@H](C(=O)O)c4cc(O)cc(O)c4-c4cc3ccc4O)[C@H](O)c3ccc(c(Cl)c3)Oc3cc2cc(c3O[C@@H]2O[C@H](CO)[C@@H](O)[C@H](O)[C@H]2O[C@H]2C[C@](C)(N)[C@H](O)[C@H](C)O2)Oc2ccc(cc2Cl)[C@H]1O [Vancomycin]
+: ATB efficacy ([2]; Algorithm #1, antibiotic at C0-4 h) | ATB efficacy ([2]; Algorithm #2, antibiotic at C0-4 h)
6/8: Number of animals with positive microbial growth on the agar with antibiotics/total number of animals per group ([1]; Blood)
−: ATB efficacy ([2]; Algorithm #1, antibiotic at Cmax) | ATB efficacy ([2]; Algorithm #2, antibiotic at Cmax) | ATB efficacy [3]
8/8: Number of animals with positive microbial growth on the agar with antibiotics/total number of animals per group ([1]; Lungs)
5/8: Number of animals with positive microbial growth on the agar with antibiotics/total number of animals per group ([1]; Liver)
not active: activity against Pseudomonas aeruginosa according to standard micro-broth dilution method (Pseudomonas aeruginosa)

C[C@H]1COc2c(N3CCN(C)CC3)c(F)cc3c(=O)c(C(=O)O)cn1c23 [Levofloxacin]
0: Degree of primary pathogen eradication, evaluation of ABEPP [5, 13] | Degree of primary pathogen eradication, evaluation of ABEPPMM [5, 13] | Degree of primary pathogen eradication, evaluation of ABEPPMM [5, 25] | Degree of primary pathogen eradication, evaluation of ABEPP [5, 26] | Degree of primary pathogen eradication, evaluation of ABEPPMM [5, 26] | Degree of primary pathogen eradication, evaluation of ABEPPMM [5, 30] | Degree of primary pathogen eradication, evaluation of ABEPP [5, 31] | Degree of primary pathogen eradication, evaluation of ABEPPMM [5, 31] | Degree of primary pathogen eradication, evaluation of ABEPPMM [5, 33] | Degree of primary pathogen eradication, evaluation of ABEPP [5, 34] | Degree of primary pathogen eradication, evaluation of ABEPPMM [5, 34] | Degree of primary pathogen eradication, evaluation of ABEPP [5, 35] | Degree of primary pathogen eradication, evaluation of ABEPPMM [5, 35] | Degree of primary pathogen eradication, evaluation of ABEPP [5, 36] | Degree of primary pathogen eradication, evaluation of ABEPPMM [5, 36] | Degree of primary pathogen eradication, evaluation of ABEPP [5, 37] | Degree of primary pathogen eradication, evaluation of ABEPPMM [5, 37] | Degree of primary pathogen eradication, evaluation of ABEPP [5, 39] | Degree of primary pathogen eradication, evaluation of ABEPPMM [5, 39] | Degree of primary pathogen eradication, evaluation of ABEPP [5, 40] | Degree of primary pathogen eradication, evaluation of ABEPPMM [5, 40] | Degree of primary pathogen eradication, evaluation of ABEPP [5, 41] | Degree of primary pathogen eradication, evaluation of ABEPPMM [5, 41] | Degree of primary pathogen eradication, evaluation of ABEPP [5, 42] | Degree of primary pathogen eradication, evaluation of ABEPPMM [5, 42]
90: Degree of primary pathogen eradication, evaluation of ABEPP [5, 8] | Degree of primary pathogen eradication, evaluation of ABEPPMM [5, 8] | Degree of primary pathogen eradication, evaluation of ABEPP [5, 14] | Degree of primary pathogen eradication, evaluation of ABEPPMM [5, 14] | Degree of primary pathogen eradication, evaluation of ABEPP [5, 17] | Degree of primary pathogen eradication, evaluation of ABEPPMM [5, 17]
4.7 µg/mL: lung concentration after 3 h of administration [4]
50: Degree of primary pathogen eradication, evaluation of ABEPP [5, 11] | Degree of primary pathogen eradication, evaluation of ABEPPMM [5, 11] | Degree of primary pathogen eradication, evaluation of ABEPP [5, 12] | Degree of primary pathogen eradication, evaluation of ABEPPMM [5, 12] | Degree of primary pathogen eradication, evaluation of ABEPP [5, 18] | Degree of primary pathogen eradication, evaluation of ABEPPMM [5, 18] | Degree of primary pathogen eradication, evaluation of ABEPP [5, 19] | Degree of primary pathogen eradication, evaluation of ABEPPMM [5, 19] | Degree of primary pathogen eradication, evaluation of ABEPP [5, 21] | Degree of primary pathogen eradication, evaluation of ABEPPMM [5, 21] | Degree of primary pathogen eradication, evaluation of ABEPP [5, 22] | Degree of primary pathogen eradication, evaluation of ABEPPMM [5, 22] | Degree of primary pathogen eradication, evaluation of ABEPP [5, 23] | Degree of primary pathogen eradication, evaluation of ABEPPMM [5, 23] | Degree of primary pathogen eradication, evaluation of ABEPP [5, 24] | Degree of primary pathogen eradication, evaluation of ABEPPMM [5, 24] | Degree of primary pathogen eradication, evaluation of ABEPP [5, 25] | Degree of primary pathogen eradication, evaluation of ABEPP [5, 27] | Degree of primary pathogen eradication, evaluation of ABEPPMM [5, 27] | Degree of primary pathogen eradication, evaluation of ABEPP [5, 28] | Degree of primary pathogen eradication, evaluation of ABEPPMM [5, 28] | Degree of primary pathogen eradication, evaluation of ABEPP [5, 29] | Degree of primary pathogen eradication, evaluation of ABEPPMM [5, 29] | Degree of primary pathogen eradication, evaluation of ABEPP [5, 30] | Degree of primary pathogen eradication, evaluation of ABEPP [5, 32] | Degree of primary pathogen eradication, evaluation of ABEPPMM [5, 32] | Degree of primary pathogen eradication, evaluation of ABEPP [5, 33] | Degree of primary pathogen eradication, evaluation of ABEPP [5, 38] | Degree of primary pathogen eradication, evaluation of ABEPPMM [5, 38]
100: Degree of primary pathogen eradication, evaluation of ABEPP [5, 6] | Degree of primary pathogen eradication, evaluation of ABEPP [5, 9] | Degree of primary pathogen eradication, evaluation of ABEPPMM [5, 9] | Degree of primary pathogen eradication, evaluation of ABEPP [5, 10] | Degree of primary pathogen eradication, evaluation of ABEPPMM [5, 10] | Degree of primary pathogen eradication, evaluation of ABEPP [5, 16] | Degree of primary pathogen eradication, evaluation of ABEPPMM [5, 16] | Degree of primary pathogen eradication, evaluation of ABEPP [5, 20]
99: Degree of primary pathogen eradication, evaluation of ABEPPMM [5, 6] | Degree of primary pathogen eradication, evaluation of ABEPP [5, 7] | Degree of primary pathogen eradication, evaluation of ABEPPMM [5, 7] | Degree of primary pathogen eradication, evaluation of ABEPP [5, 15] | Degree of primary pathogen eradication, evaluation of ABEPPMM [5, 15] | Degree of primary pathogen eradication, evaluation of ABEPPMM [5, 20]
